ChEMBL document CHEMBL5380815, “Probing Ligand Binding Sites on Large Proteins by Nuclear Magnetic Resonance Spectroscopy of Genetically Encoded Non-Canonical Amino Acids” (J Med Chem, 2023)
pEC50, pKd: −log10 of the molar value. Activity calls are given as the source filed them. The calls are words filed in the database; no cut-off is given here.

What was measured:
[1] = molecular target: T1, Replicase polyprotein 1ab (Severe acute respiratory syndrome coronavirus 2, UniProt P0DTD1); assay: Binding affinity to wild type SARS-COV2 main protease expressed in Escherichia coli BL21 (DE3) assessed as dissociation constant by small angle X-ray scattering analysis
[2] = molecular target: T1, Replicase polyprotein 1ab; assay: Binding affinity to SARS-COV2 main protease assessed as dissociation constant by mass spectrometry analysis
[3] = molecular target: T1, Replicase polyprotein 1ab; assay: Binding affinity to SARS-COV2 main protease assessed as dissociation constant by analytical ultracentrifugation analysis
[4] = tested on: SARS-CoV-2; assay: Antiviral activity against SARS-COV2 infected in African green monkey Vero E6 cells assessed as reduction of viral titer by immunofocus assay; assay type: functional, organism-based; conditions: Severe acute respiratory syndrome coronavirus 2, Vero C1008
[5] = molecular target: Replicase polyprotein 1ab (Severe acute respiratory syndrome coronavirus 2) (UniProt P0DTD1); assay: Inhibition of wild type recombinant SARS-COV2 main protease expressed in Escherichia coli BL21 (DE3) using DABCYL-KTSAVLQSGFRKME-EDANS-NH2 as fluorogenic substrate at 1.5 to 50 uM preincubated for 10 mins followed by substrate addition by FRET assay; conditions: dose 1.5-50 µM

In the case of `CC(=O)[C@@H]1CSCC(=O)N[C@H](Cc2ccc(O)cc2)C(=O)N[C@@H](CC(C)C)C(=O)N[C@@H](CCC(N)=O)C(=O)N[C@@H](Cc2ccc(O)cc2)C(=O)N[C@@H](C)C(=O)N[C@@H](C(C)C)C(=O)N[C@@H](CC(C)C)C(=O)N[C@@H](CCCNC(=N)N)C(=O)N[C@@H](Cc2c[nH]cn2)C(=O)N[C@@H](CCCCN)C(=O)N[C@@H](CCCNC(=N)N)C(=O)N[C@@H](CCCNC(=N)N)C(=O)N[C@@H](CCC(=O)O)C(=O)C1`, the pKd [1] was 5.15, the pKd [2] was 6.85 and the pKd [3] was 5.60.

For `CCOc1cc2ncc(C#N)c(Nc3ccc(F)c(Cl)c3)c2cc1NC(=O)/C=C/CN(C)C` [PELITINIB], the pEC50 [4] was 5.90 and the inhibition [5] was “inactive”.
